Reference: US20150011508A1, “COMPOUNDS AND COMPOSITIONS AS C-KIT KINASE INHIBITORS” (priority 2011, published 2015)

Target: T1, c-kit (Homo sapiens, UniProt P10721)
T1 construct: human Mo7e cells which endogenously express c-kit; endogenous in cells; host or cells: human Mo7e cells (SCF-dependent promegakaryocytic leukemia line)
Assay: Mo7e cell proliferation assay (SCF dependent proliferation)
Format: cell-based
Outline: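 SCF-dependent proliferation of human Mo7e cells, which express c-kit endogenously, was measured after 48 h at 37° C by CellTiter Glo luminescence. IC50 was taken as the concentration giving a response halfway between the baseline and maximum responses.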

[1] = Table 2, human Mo7e cells stimulated with human recombinant SCF, 48 h, CellTiter Glo, 1% FBS (footnote)
[2] = Table 1, human Mo7e cells stimulated with human recombinant SCF, 48 h, CellTiter Glo, 1% FBS (footnote)

T1 sequence (P10721 26-976): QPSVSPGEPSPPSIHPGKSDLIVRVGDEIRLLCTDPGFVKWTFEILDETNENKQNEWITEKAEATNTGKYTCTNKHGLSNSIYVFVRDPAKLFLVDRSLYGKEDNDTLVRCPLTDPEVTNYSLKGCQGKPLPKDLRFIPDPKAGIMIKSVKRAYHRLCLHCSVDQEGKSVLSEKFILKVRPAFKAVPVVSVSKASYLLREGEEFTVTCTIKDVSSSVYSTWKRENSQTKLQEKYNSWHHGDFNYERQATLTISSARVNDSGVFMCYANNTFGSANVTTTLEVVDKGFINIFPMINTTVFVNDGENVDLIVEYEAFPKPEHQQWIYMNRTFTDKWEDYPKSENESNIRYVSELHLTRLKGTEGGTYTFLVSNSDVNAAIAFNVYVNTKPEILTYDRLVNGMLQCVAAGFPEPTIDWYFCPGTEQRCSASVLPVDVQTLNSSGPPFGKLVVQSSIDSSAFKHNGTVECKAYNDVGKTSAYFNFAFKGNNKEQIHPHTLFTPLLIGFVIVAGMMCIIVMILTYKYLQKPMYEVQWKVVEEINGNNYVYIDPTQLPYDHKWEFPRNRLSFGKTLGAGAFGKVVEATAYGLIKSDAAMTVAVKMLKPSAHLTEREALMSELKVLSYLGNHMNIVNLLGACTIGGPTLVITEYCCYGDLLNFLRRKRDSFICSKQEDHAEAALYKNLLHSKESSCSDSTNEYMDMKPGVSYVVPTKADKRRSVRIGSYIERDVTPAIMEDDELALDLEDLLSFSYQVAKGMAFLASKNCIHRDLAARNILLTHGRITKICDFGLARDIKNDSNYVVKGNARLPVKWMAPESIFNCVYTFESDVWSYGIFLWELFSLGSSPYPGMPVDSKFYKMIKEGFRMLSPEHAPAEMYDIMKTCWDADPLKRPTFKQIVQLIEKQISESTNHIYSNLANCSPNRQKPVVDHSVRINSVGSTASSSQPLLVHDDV

| IC50 [1] [nM] | SMILES | also measured |
| --- | --- | --- |
| 255 | Cc1ccc(-c2noc(C(C)O)n2)cc1NC(=O)c1cnc2ccccn12 (stereo not drawn) [F198] | – |
| 144 | Cc1nc(-c2ccc(C)c(NC(=O)c3cnc4ccc(C5CC5)cn34)c2)no1 [F203] | – |
| 157 | COC(=O)NCc1nc(-c2ccc(C)c(NC(=O)c3cnc4ccc(C)cn34)c2)no1 [F204] | – |
| 196 | Cc1nc(-c2ccc(C)c(NC(=O)c3cnc4ccc(-c5cncnc5)cn34)c2)no1 [F206] | – |
| 431 | CCN(CC)C(=O)Cc1nc(-c2ccc(C)c(NC(=O)c3cnc4ccccn34)c2)no1 [F210] | – |
| 691 | Cc1nc(-c2ccc(C)c(NC(=O)c3cnc4ccc(CCN5CCOCC5)cn34)c2)no1 [F212] | – |
| 1030 | COC(=O)NCc1nc(-c2ccc(C)c(NC(=O)c3cnc4ccc(CCC(=O)OC(C)(C)C)cn34)c2)no1 [F216] | – |
| 1030 | Cc1ccc(-c2noc(CN)n2)cc1NC(=O)c1cnc2ccccn12 [F217] | – |
| 1250 | Cc1ccc(-c2noc(CCC(C)(C)O)n2)cc1NC(=O)c1cnc2ccc(-n3ccnc3)cn12 [F221] | – |
| 1480 | Cc1ccc(-c2noc(CNC(=O)CCO)n2)cc1NC(=O)c1cnc2ccccn12 [F224] | – |
| 2380 | Cc1ccc(-c2noc(CC#N)n2)cc1NC(=O)c1cnc2ccccn12 [F227] | – |
| 5450 | Cc1ccc(-c2noc(CCC(=O)O)n2)cc1NC(=O)c1cnc2ccccn12 [F229] | – |
| 166 | Cc1nc(-c2ccc(C)c(NC(=O)c3cnc4ccc(-c5nc(C)c(C(C)O)s5)cn34)c2)no1 (stereo not drawn) [F236] | – |
| 341 | Cc1nc(-c2ccc(C)c(NC(=O)c3cnc4ccc(-c5sc(C(=O)O)nc5C)cn34)c2)no1 [F247] | – |
| 142 | Cc1ccn2c(C(=O)Nc3cc(-c4noc(CC[C@@](C)(OC(=O)[C@@H](N)C(C)C)C(F)(F)F)n4)ccc3C)cnc2c1 [F251] | – |

Continued, compound first:

| SMILES | IC50 [1] [nM] | also measured |
| --- | --- | --- |
| COCCNc1nc(-c2ccc(C)c(NC(=O)c3cnc4cc(C)ccn34)c2)no1 [F197] | 110 | – |
| Cc1ccc(-c2noc(C(F)C(F)(F)F)n2)cc1NC(=O)c1cnc2ccccn12 (stereo not drawn) [F199] | 126 | – |
| Cc1ccc(-c2noc(C(C)F)n2)cc1NC(=O)c1cnc2ccccn12 (stereo not drawn) [F200] | 120 | – |
| Cc1nc(-c2ccc(C)c(NC(=O)c3cnc4ccc(-c5cnccn5)cn34)c2)no1 [F201] | 125 | – |
| Cc1nc(-c2ccc(C)c(NC(=O)c3cnc4ccc(-c5cnccc5C)cn34)c2)no1 [F202] | 135 | – |
| CCC(C)(O)c1nc(-c2ccc(C)c(NC(=O)c3cnc4ccccn34)c2)no1 (stereo not drawn) [F205] | 174 | – |
| Cc1cc(-c2ccc3ncc(C(=O)Nc4cc(-c5noc(C)n5)ccc4C)n3c2)n(C)n1 [F207] | 223 | – |
| Cc1nc(-c2ccc(C)c(NC(=O)c3cnc4ccc(-c5ccnn5C)cn34)c2)no1 [F208] | 228 | – |
| CCNC(=O)Cc1nc(-c2ccc(C)c(NC(=O)c3cnc4ccccn34)c2)no1 [F209] | 318 | – |
| Cc1nc(-c2ccc(C)c(NC(=O)c3cnc4ccc(CCN5CCNCC5)cn34)c2)no1 [F211] | 571 | – |
| CC(=O)N[C@@H](C)c1nc(-c2ccc(C)c(NC(=O)c3cnc4ccccn34)c2)no1 [F213] | 795 | – |
| COCc1n[nH]c(-c2ccc3ncc(C(=O)Nc4cc(-c5noc(CCC(C)(C)O)n5)ccc4C)n3c2)n1 [F214] | 805 | – |
| COCCOCc1nc(-c2ccc(C)c(NC(=O)c3cnc4ccccn34)c2C)no1 [F215] | 886 | – |
| Cc1ccc(-c2noc(C(C)(C)N)n2)cc1NC(=O)c1cnc2ccccn12 [F218] | 1060 | – |
| Cc1ccc(-c2noc(C[C@@H](C)N)n2)cc1NC(=O)c1cnc2ccccn12 [F219] | 1190 | – |
| Cc1ccc(-c2noc(CNC(=O)OCCC(F)(F)F)n2)cc1NC(=O)c1cnc2ccccn12 [F220] | 1190 | – |
| CC(=O)NCCCc1nc(-c2ccc(C)c(NC(=O)c3cnc4ccccn34)c2)no1 [F222] | 1320 | – |
| Cc1ccc(-c2noc(CNC(=O)CC(C)(C)O)n2)cc1NC(=O)c1cnc2ccccn12 [F223] | 1460 | – |
| Cc1ccc(-c2nc(C(C)(C)C)no2)cc1NC(=O)c1cnc2ccccn12 [F225] | 1590 | – |
| Cc1ccc(-c2noc(CCN)n2)cc1NC(=O)c1cnc2ccccn12 [F226] | 2180 | – |
| COC(=O)NCc1nc(-c2ccc(C)c(NC(=O)c3cnc4ccc(CCC(=O)O)cn34)c2)no1 [F230] | > 10000 | – |
| Cc1ccc(-c2noc(CC(F)(F)F)n2)cc1NC(=O)c1cnc2ccccn12 [F231] | > 10000 | – |
| COC(=O)NCc1nc(-c2ccc(C)c(NC(=O)c3cnc4cc(CCC(=O)O)ccn34)c2)no1 [F232] | > 10000 | – |
| Cc1ccc(-c2nc(CC(=O)N(C)C)no2)cc1NC(=O)c1cnc2ccccn12 [F233] | – | IC50 (Table 2, values marked *: 20% FBS instead of 1% FBS): > 6000 nM |

| SMILES | IC50 [1] [nM] | also measured |
| --- | --- | --- |
| Cc1nc(-c2ccc(C)c(NC(=O)c3cnc4ccc(-c5c(C)nn(CC(=O)OC(C)(C)C)c5C)cn34)c2)no1 [F234] | 209 | – |
| Cc1nc(-c2ccc(C)c(NC(=O)c3cnc4ccc(-c5c(C)nn(CC(=O)O)c5C)cn34)c2)no1 [F235] | 2460 | – |
| Cc1nc(-c2ccc(C)c(NC(=O)c3cnc4ccc(-c5nc(C)c(C)s5)cn34)c2)no1 [F237] | 182 | – |
| Cc1nc(-c2ccc(C)c(NC(=O)c3cnc4ccc(-c5c(C)nn(CC(=O)NCCN6CCOCC6)c5C)cn34)c2)no1 [F239] | 193 | – |
| Cc1nc(-c2ccc(C)c(NC(=O)c3cnc4ccc(C(N)=O)cn34)c2)no1 [F240] | 1480 | – |
| Cc1nc(-c2ccc(C)c(NC(=O)c3cnc4ccc(C(N)=S)cn34)c2)no1 [F241] | 127 | – |
| Cc1nc(-c2ccc(C)c(NC(=O)c3cnc4ccc(-c5nc(C)c(C(=O)NCCO)s5)cn34)c2)no1 [F242] | 155 | – |
| Cc1nc(-c2ccc(C)c(NC(=O)c3cnc4ccc(-c5nc(C)c(C(=O)NCCN6CCN(C)CC6)s5)cn34)c2)no1 [F243] | 194 | – |
| Cc1nc(-c2ccc(C)c(NC(=O)c3cnc4ccc(-c5nc(C)c(C(=O)NCCN6CCOCC6)s5)cn34)c2)no1 [F245] | 120 | – |
| Cc1ccc(-c2noc(CCC(C)(C)O)n2)cc1NC(=O)c1cnc2c(N)cccn12 [F246] | 1800 | – |
| Cc1nc(-c2ccc(C)c(NC(=O)c3cnc4ccc(-c5sc(C(=O)NCCN6CCN(C)CC6)nc5C)cn34)c2)no1 [F248] | 140 | – |
| Cc1ccn2c(C(=O)Nc3cc(-c4noc(CCC(C)(C)OC(=O)CN)n4)ccc3C)cnc2c1 [F249] | 108 | – |
| Cc1ccn2c(C(=O)Nc3cc(-c4noc(CC[C@](C)(OC(=O)[C@H](N)C(C)C)C(F)(F)F)n4)ccc3C)cnc2c1 [F252] | 134 | – |
| Cc1ccn2c(C(=O)Nc3cc(-c4noc(CCC(O)C(F)(F)F)n4)ccc3C)cnc2c1 (stereo not drawn) [F253] | – | IC50 [2]: 13 nM |
| Cc1ccn2c(C(=O)Nc3cc(-c4noc(CC(O)(C(F)(F)F)C(F)(F)F)n4)ccc3C)cnc2c1 [F254] | – | IC50 [2]: 51 nM |
| Cc1nc(-c2ccc(C)c(NC(=O)c3cnc4ccc(-c5c(C)nn(CCO)c5C)cn34)c2)no1 [F255, 6-(1-(2-hydroxyethyl)-3,5-dimethyl-1H-pyrazol-4-yl)-N-(2-methyl-5-(5-methyl-1,2,4-oxadiazol-3-yl)phenyl)imidazo[1,2-a]pyridine-3-carboxamide] | – | IC50 [2]: 16 nM |
| CC(=O)c1sc(-c2ccc3ncc(C(=O)Nc4cc(-c5noc(C)n5)ccc4C)n3c2)nc1C [F256, 6-(5-acetyl-4-methylthiazol-2-yl)-N-(2-methyl-5-(5-methyl-1,2,4-oxadiazol-3-yl)phenyl)imidazo[1,2-a]pyridine-3-carboxamide] | – | IC50 [2]: 54 nM |
| Cc1nc(-c2ccc(C)c(NC(=O)c3cnc4ccc(-c5c[nH]nc5C)cn34)c2)no1 [F257, 6-(3-methyl-1H-pyrazol-4-yl)-N-(2-methyl-5-(5-methyl-1,2,4-oxadiazol-3-yl)phenyl)imidazo[1,2-a]pyridine-3-carboxamide] | – | IC50 [2]: 19 nM |
| CNC(=O)c1sc(-c2ccc3ncc(C(=O)Nc4cc(-c5noc(C)n5)ccc4C)n3c2)nc1C [F258, N,4-dimethyl-2-(3-((2-methyl-5-(5-methyl-1,2,4-oxadiazol-3-yl)phenyl)carbamoyl)imidazo[1,2-a]pyridin-6-yl)thiazole-5-carboxamide] | – | IC50 [2]: 65 nM |
| Cc1nc(-c2ccc(C)c(NC(=O)c3cnc4ccc(-c5nc(C)c(C(N)=O)s5)cn34)c2)no1 [F259, 4-methyl-2-(3-((2-methyl-5-(5-methyl-1,2,4-oxadiazol-3-yl)phenyl)carbamoyl)imidazo[1,2-a]pyridin-6-yl)thiazole-5-carboxamide] | – | IC50 [2]: 89 nM |
| CNC(=O)Cn1nc(C)c(-c2ccc3ncc(C(=O)Nc4cc(-c5noc(C)n5)ccc4C)n3c2)c1C [F260, 6-(3,5-dimethyl-1-(2-(methylamino)-2-oxoethyl)-1H-pyrazol-4-yl)-N-(2-methyl-5-(5-methyl-1,2,4-oxadiazol-3-yl)phenyl)imidazo[1,2-a]pyridine-3-carboxamide] | – | IC50 [2]: 32 nM |
| CCOC(=O)c1nc(C)c(-c2ccc3ncc(C(=O)Nc4cc(-c5noc(C)n5)ccc4C)n3c2)s1 [F261, ethyl 4-methyl-5-(3-((2-methyl-5-(5-methyl-1,2,4-oxadiazol-3-yl)phenyl)carbamoyl)imidazo[1,2-a]pyridin-6-yl)thiazole-2-carboxylate] | – | IC50 [2]: 83 nM |
| Cc1nc(-c2ccc(C)c(NC(=O)c3cnc4ccc(-c5sc(C(=O)NCCN6CCOCC6)nc5C)cn34)c2)no1 [F262, 4-methyl-5-(3-((2-methyl-5-(5-methyl-1,2,4-oxadiazol-3-yl)phenyl)carbamoyl)imidazo[1,2-a]pyridin-6-yl)-N-(2-morpholinoethyl)thiazole-2-carboxamide] | – | IC50 [2]: 75 nM |
| Cc1nc(-c2ccc(C)c(NC(=O)c3cnc4ccc(-c5sc(C(=O)NCCO)nc5C)cn34)c2)no1 [F263, N-(2-hydroxyethyl)-4-methyl-5-(3-((2-methyl-5-(5-methyl-1,2,4-oxadiazol-3-yl)phenyl)carbamoyl)imidazo[1,2-a]pyridin-6-yl)thiazole-2-carboxamide] | – | IC50 [2]: 58 nM |
